The numbers were not newly measured in US4310517A, “Tumor-resolving and histolytic medicaments and their use” (Troponwerke GmbH & Co., KG, priority 1976, dated 1982), which cites them from elsewhere.

Read-outs that look alike come from different tables or passages of the source.

The subject of the data set is tumour cells.

In the case of `O=P1(N(CCCl)CCCl)NCCCO1` (centres unmarked) [cyclophosphamide], the tumour cells destroyed is reported as 99.999% (LD10 dosage) and 90% (one eighth of the LD10 dose).
